Results reported in ChEMBL document CHEMBL1201862, “PubChem BioAssay data set” (2004).
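Step 1: Grow cells in 96-well plates. Step 2: Expose to compound for 48 hours at 5 concentrations. Step 3: Interpolate endpoints linearly; if unreached, use highest concentration. GI50: concentration for 50% inhibition of growth.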 Calls of active or inactive are those of the source. No stated cut-off is given here; in the data, active = GI50 up to about 1.1 µM and inactive = higher. Residues, ends and D or L forms follow the SMILES beside them. *: point of attachment. Boc = CC(C)(C)OC(=O)*

What was measured:
Test in all cases: inhibition of tumour cell growth, NCI panel, 48 h
SK-MEL-5 = test system: SK-MEL-5
MCF7 = test system: MCF7
HOP-62 = test system: HOP-62
T47D = test system: T47D
SK-MEL-28 = test system: SK-MEL-28
SK-MEL-2 = test system: SK-MEL-2
PC-3 = test system: PC-3
SF-295 = test system: SF-295
OVCAR-3 = test system: OVCAR-3
COLO 205 = test system: COLO 205
ACHN = test system: ACHN
OVCAR-8 = test system: OVCAR-8
BT-549 = test system: BT-549
DU-145 = test system: DU-145
Malme-3M = test system: Malme-3M

Measured: GI50

N/C(=N\c1c([N+](=O)[O-])cnc2ccccc12)N1CCOCC1
inactive: SK-MEL-5 > 100 µM | MCF7 > 100 µM | HOP-62 > 100 µM | T47D > 100 µM | SK-MEL-28 > 100 µM | SK-MEL-2 > 100 µM | PC-3 > 100 µM | SF-295 86.9 µM | OVCAR-3 > 100 µM | COLO 205 > 100 µM | ACHN > 100 µM | OVCAR-8 > 100 µM | BT-549 > 100 µM | DU-145 > 100 µM

CC(=O)c1cc2sc3ccccc3c2[nH]1
inactive: SK-MEL-5 > 100 µM | MCF7 > 100 µM | HOP-62 > 100 µM | T47D > 100 µM | Malme-3M > 100 µM | SK-MEL-28 > 100 µM | SK-MEL-2 > 100 µM | PC-3 > 100 µM | SF-295 > 100 µM | OVCAR-3 > 100 µM | COLO 205 > 100 µM | ACHN > 100 µM | OVCAR-8 61.2 µM | DU-145 > 100 µM

COc1ccc(C(=O)/C=C/S/C(=N/C#N)SC)cc1
inactive: SK-MEL-5 21.8 µM | MCF7 18.4 µM | HOP-62 24.3 µM | T47D 20.7 µM | Malme-3M 24.5 µM | SK-MEL-28 30.2 µM | SK-MEL-2 20.5 µM | PC-3 33.8 µM | SF-295 28 µM | OVCAR-3 16.4 µM | COLO 205 19.7 µM | ACHN 20.4 µM | OVCAR-8 21 µM | DU-145 21.7 µM

O=c1ccn(C2OC(COC3CCCCO3)C(OC3CCCCO3)C2OC2CCCCO2)c(=O)n1-c1ccccc1 (stereo unspecified)
inactive: SK-MEL-5 > 100 µM | MCF7 > 100 µM | HOP-62 > 100 µM | T47D > 100 µM | Malme-3M > 100 µM | SK-MEL-28 > 100 µM | SK-MEL-2 > 100 µM | PC-3 > 100 µM | SF-295 > 100 µM | OVCAR-3 > 100 µM | COLO 205 > 100 µM | ACHN > 100 µM | OVCAR-8 > 100 µM | DU-145 > 100 µM

CCCCNC(=O)OCCN=C1c2ccccc2C(Br)C(Br)c2ccccc21 (stereo unspecified)
inactive: SK-MEL-5 18.7 µM | MCF7 58.2 µM | HOP-62 25.9 µM | T47D 33.8 µM | Malme-3M 23.3 µM | SK-MEL-28 35.4 µM | SK-MEL-2 42.9 µM | PC-3 36.9 µM | SF-295 87.7 µM | OVCAR-3 19.9 µM | COLO 205 20.2 µM | ACHN 24.2 µM | OVCAR-8 27.6 µM | DU-145 41.3 µM

O=C(Nc1ccn(C2CC(O)C(COC(c3ccccc3)(c3ccccc3)c3ccccc3)O2)c(=O)n1)c1ccccc1 (stereo unspecified)
inactive: SK-MEL-5 2.33 µM | MCF7 2.43 µM | HOP-62 5.62 µM | T47D 4.46 µM | Malme-3M 2.61 µM | SK-MEL-28 3.08 µM | SK-MEL-2 2.82 µM | PC-3 2.43 µM | SF-295 1.96 µM | OVCAR-3 2.03 µM | COLO 205 2.09 µM | ACHN 3.35 µM | OVCAR-8 1.97 µM | DU-145 5.61 µM

O=c1cnnc2sc(=S)[nH]n12
inactive: SK-MEL-5 20.1 µM | MCF7 14.7 µM | HOP-62 2.61 µM | Malme-3M 31 µM | SK-MEL-28 65.5 µM | SK-MEL-2 > 100 µM | PC-3 26.7 µM | SF-295 2.97 µM | OVCAR-3 32.4 µM | COLO 205 > 100 µM | ACHN 53.5 µM | OVCAR-8 16.4 µM | BT-549 14.1 µM | DU-145 > 100 µM

COc1ccc(/C=C2/SC(c3ccccc3)N(NC(=O)CCCCCCCCC(=O)NN3C(=O)/C(=C\c4ccc(OC)c(OC)c4)SC3c3ccccc3)C2=O)cc1OC (stereo unspecified)
inactive: MCF7 34 µM | HOP-62 35 µM | T47D 35.6 µM | SK-MEL-28 48 µM | SK-MEL-2 52.7 µM | PC-3 76 µM | SF-295 24.2 µM | OVCAR-3 > 100 µM | COLO 205 > 100 µM | ACHN 25.6 µM | OVCAR-8 67.8 µM | BT-549 > 100 µM | DU-145 > 100 µM

OCC1COc2cc(Cl)c(Cl)cc2O1 (stereo unspecified)
inactive: SK-MEL-5 > 10 µM | MCF7 > 10 µM | HOP-62 > 10 µM | T47D > 10 µM | Malme-3M > 10 µM | SK-MEL-28 > 10 µM | SK-MEL-2 > 10 µM | PC-3 > 10 µM | SF-295 > 10 µM | OVCAR-3 > 10 µM | COLO 205 > 10 µM | ACHN > 10 µM | OVCAR-8 > 10 µM | DU-145 > 10 µM

Cc1ccc2nc(NC(=O)/C(Cc3nc4ccc(Cl)cc4nc3O)=N\NC(C)(C)C)sc2c1
inactive: SK-MEL-5 > 10 µM | MCF7 > 100 µM | T47D > 100 µM | SK-MEL-28 > 100 µM | SK-MEL-2 > 100 µM | PC-3 > 100 µM | SF-295 36.1 µM | OVCAR-3 > 100 µM | COLO 205 > 100 µM | ACHN > 100 µM | OVCAR-8 > 100 µM | BT-549 > 100 µM | DU-145 > 100 µM

CCOC(=O)C(NC(=O)c1cccc(Cl)c1)(Nc1ccc(S(=O)(=O)Nc2cc(C)on2)cc1)C(F)(F)F (stereo unspecified)
inactive: SK-MEL-5 > 100 µM | MCF7 > 100 µM | HOP-62 > 100 µM | T47D > 100 µM | Malme-3M > 100 µM | SK-MEL-28 > 100 µM | SK-MEL-2 > 100 µM | PC-3 > 100 µM | SF-295 14.4 µM | OVCAR-3 > 100 µM | COLO 205 > 100 µM | ACHN > 100 µM | OVCAR-8 > 100 µM | DU-145 > 100 µM

CCCCCCCCCCCCOCCOCCOCCOCCOCCOCC(=O)NC(Cc1ccccc1)C(=O)Oc1ccc([N+](=O)[O-])cc1 (stereo unspecified)
inactive: SK-MEL-5 31.8 µM | MCF7 38.1 µM | HOP-62 40.9 µM | T47D 40 µM | Malme-3M 29.6 µM | SK-MEL-2 23.8 µM | PC-3 31 µM | SF-295 39.1 µM | OVCAR-3 22.9 µM | COLO 205 15.8 µM | ACHN 27.2 µM | OVCAR-8 44.5 µM | BT-549 25.5 µM

CCN(CC)CCNC(=O)c1cc2cc(NC(=O)c3cc4cc(NC(=O)c5cc6cc(N)ccc6[nH]5)ccc4[nH]3)ccc2[nH]1
inactive: SK-MEL-5 > 100 µM | HOP-62 > 100 µM | T47D > 100 µM | Malme-3M > 100 µM | SK-MEL-28 > 100 µM | SK-MEL-2 > 100 µM | PC-3 > 100 µM | SF-295 > 100 µM | OVCAR-3 > 100 µM | COLO 205 > 100 µM | ACHN > 100 µM | OVCAR-8 > 100 µM | BT-549 > 100 µM | DU-145 > 100 µM

COC(CC1(/C=C/O[Si](C(C)C)(C(C)C)C(C)C)C(=O)N(COCC[Si](C)(C)C)c2ccccc21)OC (stereo unspecified)
inactive: SK-MEL-5 23.1 µM | HOP-62 66.8 µM | T47D > 100 µM | SK-MEL-28 16.6 µM | SK-MEL-2 13.3 µM | PC-3 22.1 µM | SF-295 7.96 µM | OVCAR-3 13.1 µM | COLO 205 66.8 µM | ACHN 26.6 µM | OVCAR-8 > 100 µM | DU-145 > 100 µM

COc1ccc(-c2nc(-c3cnccn3)n(Cc3ccccc3)n2)cc1
inactive: SK-MEL-5 > 100 µM | MCF7 > 100 µM | HOP-62 > 100 µM | T47D > 100 µM | SK-MEL-28 > 100 µM | PC-3 > 100 µM | SF-295 > 100 µM | OVCAR-3 > 100 µM | COLO 205 > 100 µM | OVCAR-8 > 100 µM | BT-549 > 100 µM | DU-145 > 100 µM

COc1ccc(CC2(O)C3CC4CCC2C4C3)cc1 (stereo unspecified)
inactive: SK-MEL-5 31.9 µM | MCF7 65.6 µM | HOP-62 > 100 µM | Malme-3M > 100 µM | SK-MEL-28 > 100 µM | SK-MEL-2 > 100 µM | PC-3 39.2 µM | SF-295 42.6 µM | OVCAR-3 > 100 µM | COLO 205 74.3 µM | ACHN > 100 µM | OVCAR-8 > 100 µM | BT-549 36.6 µM

COC(=O)C1OC2(CCCC3CC32)O[C@H]1C(=O)OC (stereo partly specified)
inactive: MCF7 > 100 µM | HOP-62 > 100 µM | Malme-3M > 100 µM | SK-MEL-28 > 100 µM | SK-MEL-2 > 100 µM | PC-3 > 100 µM | SF-295 > 100 µM | OVCAR-3 > 100 µM | COLO 205 > 100 µM | ACHN > 100 µM | OVCAR-8 > 100 µM | BT-549 > 100 µM | DU-145 > 100 µM

CC(NC(=O)C(NC(=O)OC(C)(C)C)C(C)C)C(=O)N1CCCC1C(=O)NCC(=O)NC(C(=O)NCC(=O)O)C(C)C (stereo unspecified) (Boc-VAPGVG-OH; configuration not given here)
inactive: MCF7 > 100 µM | HOP-62 > 100 µM | T47D > 100 µM | Malme-3M > 100 µM | SK-MEL-28 > 100 µM | SK-MEL-2 > 100 µM | PC-3 > 100 µM | SF-295 > 100 µM | OVCAR-3 > 100 µM | COLO 205 > 100 µM | ACHN > 100 µM | OVCAR-8 > 100 µM | DU-145 > 100 µM

CCOc1cc(C=O)ccc1O [ETHYL VANILLIN]
inactive: SK-MEL-5 > 100 µM | MCF7 > 100 µM | HOP-62 > 100 µM | T47D > 100 µM | Malme-3M > 100 µM | SK-MEL-28 > 100 µM | SK-MEL-2 > 100 µM | PC-3 > 100 µM | SF-295 > 100 µM | OVCAR-3 > 100 µM | COLO 205 > 100 µM | ACHN > 100 µM | OVCAR-8 > 100 µM | DU-145 > 100 µM
